In patent US8895559B2, “Quinoxalines derivatives and pharmaceutical compositions and kits” (Merck Patent GmbH, priority 2010, dated 2014):

Tested on: PI3K
Experiment: Cellular testing of PI3K inhibitors: P-S473-PKB Luminex assay in PC3 cells
Type: cell-based
Conditions: PI3K-dependent phosphorylation of PKB at Serin 473 in PC3 cells
Description: Description of the Method for the Cellular Testing of PI3K Inhibitors
The cellular assay for determination of the P-S473-PKB level is carried out as a Luminex assay in 96-well format in PC3 cells.
PC3 cells are sown out with 20,000 cells per well in 100 μl medium (45% RPMI1460/45% Ham's F12/10% FCS) and incubated on the following day for 30 min with a serial dilution of the test substance (7 concentrations) under serum-free conditions. […] The lysates are incubated overnight at 4° C. with shaking with Luminex beads to which an anti-total PKB antibody is coupled. The detection is carried out on the following day by addition of a P-S473-PKB antibody and a species-specific PE-labelled secondary antibody. The detection of P-S473-PKB is carried out by measurement in a Luminex 100 instrument by determination of 100 events per cavity in a measurement time of 60 sec. […] The values of the preparations treated with test substance are calculated from this as percent of control, and IC50 values are determined by means of RS1.

Row | IC50 [µM] | SMILES
1 | 0.096 | COc1cc(Nc2nc3ccccc3nc2NS(=O)(=O)c2cn(C)cn2)c(OCCCO)c(OC)c1 [drawing 163]
2 | 0.0046 | COc1cc(Nc2nc3ccccc3nc2NS(=O)(=O)c2cn(C)c(CN(C)C)n2)c(OCCC(C)O)c(OC)c1 (stereo not shown) [drawing 153]

Same assay, conditions: PI3 kinase inhibition, cell

Row | SMILES | IC50 [µM]
3 | COc1cc(Nc2nc3ccccc3nc2NS(=O)(=O)c2ccc(C(=O)N(C)C)cc2)c(OC)c(OC)c1 [Compound A90] | 0.1 to 10
4 | COc1ccc(S(=O)(=O)Nc2nc3ccccc3nc2Nc2cc(OC)cc(OC)c2OCCOCCO)cc1 [Compound A61] | 0.1 to 10
5 | COc1cc(Nc2nc3ccccc3nc2NS(=O)(=O)c2ccc(C#N)cc2)c(OCCCO)c(OC)c1 [Compound A82] | 0.001 to 0.1
6 | COc1cc(Nc2nc3ccccc3nc2NS(=O)(=O)c2ccc(CN(C)C)cc2)c(OCCCO)c(OC)c1 [Compound A38, 4-dimethylaminomethyl-N-{3-[2-(3-hydroxypropoxy)-3,5-dimethoxyphenylamino]quinoxalin-2-yl}benzenesulfonamide] | 0.001 to 0.1
7 | COc1cc(Nc2nc3ccccc3nc2NS(=O)(=O)c2cccnc2)c(OCCN(C)CCO)c(OC)c1 [Compound A68] | 0.1 to 10
8 | COc1cc(Nc2nc3ccccc3nc2NS(=O)(=O)c2ccc(C(=O)NCC(F)F)cc2)c(OCCCO)c(OC)c1 [Compound A93] | 0.1 to 10
9 | COCCOCCOc1c(Nc2nc3ccccc3nc2NS(=O)(=O)c2ccc(C#N)cc2)cc(OC)cc1OC [Compound A48] | 0.001 to 0.1
10 | COc1cc(Nc2nc3ccccc3nc2NS(=O)(=O)c2ccc(C#N)cc2)c(OCCOCCO)c(OC)c1 [Compound A80] | 0.001 to 0.1
11 | COc1cc(Nc2nc3ccccc3nc2NS(=O)(=O)c2cccnc2)c(OCCOCCO)c(OC)c1 [Compound A65] | 0.1 to 10
12 | COc1cc(Nc2nc3ccccc3nc2NS(=O)(=O)c2ccccc2)c(OCCOCCO)c(OC)c1 [Compound A58] | 0.001 to 0.1
13 | COc1cc(Nc2nc3ccccc3nc2NS(=O)(=O)c2ccc(CN3CC(F)(F)C3)cc2)c(OCCCO)c(OC)c1 [Compound A110, 4-(3,3-Difluoroazetidin-1-ylmethyl)-N-{3-[2-(3-hydroxypropoxy)-3,5-dimethoxyphenylamino]-quinoxalin-2-yl}benzenesulfonamide] | 0.001 to 0.1
14 | COc1cc(Nc2nc3ccccc3nc2NS(=O)(=O)C2CCS(=O)(=O)C2)c(OCCCO)c(OC)c1 (stereo not shown) [Compound A35] | 0.001 to 0.1
15 | COc1cc(Nc2nc3ccccc3nc2NS(=O)(=O)C(F)(F)F)c(OCCCO)c(OC)c1 [Compound A39] | 0.001 to 0.1
16 | COc1cc(Nc2nc3ccccc3nc2NS(=O)(=O)c2cn(C)c(CN(C)C)n2)c(CCCCO)c(OC)c1 [Compound A94] | 0.1 to 10

Results, then the molecule that gave them:

Row | IC50 [µM] | SMILES
17 | 0.001 to 0.1 | COc1cc(Nc2nc3ccccc3nc2NS(=O)(=O)c2ccn(C)n2)c(OCCC(C)(C)O)c(OC)c1 [Compound A125]
18 | 0.001 to 0.1 | COc1cc(Nc2nc3ccccc3nc2NS(=O)(=O)c2ccc(C#N)cc2)c(OCCN2CCOCC2)c(OC)c1 [Compound A70]
19 | 0.001 to 0.1 | COc1cc(Nc2nc3ccccc3nc2NS(=O)(=O)c2cnn(C(F)F)c2)c(OCCC(C)O)c(OC)c1 (stereo not shown) [Compound A103]
20 | 0.1 to 10 | COc1cc(Nc2nc3ccccc3nc2NS(=O)(=O)c2cn(C)cn2)c2c(c1)OCO2 [Compound A1]
21 | 0.001 to 0.1 | COc1cc(Nc2nc3ccccc3nc2NS(=O)(=O)c2ccn(CC(=O)N(C)C)n2)c(OC)c(OC)c1 [Compound A131]
22 | 0.001 to 0.1 | COc1cc(Nc2nc3ccccc3nc2NS(=O)(=O)c2ccn(CC(=O)N(C)C)n2)c(OCCC(C)O)c(OC)c1 (stereo not shown) [Compound A120]
23 | 0.1 to 10 | COc1cc(Nc2nc3ccccc3nc2NS(=O)(=O)c2cn(C)cn2)c(CCCN2CCS(=O)(=O)CC2)c(OC)c1 [Compound A4]
24 | 0.001 to 0.1 | COc1cc(Nc2nc3ccccc3nc2NS(=O)(=O)N(C)C)c(OCCCO)c(OC)c1 [Compound A104]
25 | 0.1 to 10 | COc1cc(Nc2nc3ccccc3nc2NS(=O)(=O)c2cn(C)cn2)c(OCCN2CCOCC2)c(OC)c1 [Compound A54]
26 | 0.001 to 0.1 | COc1cc(Nc2nc3ccccc3nc2NS(=O)(=O)c2cn(C)cn2)c(OCCC(C)O)c(OC)c1 (stereo not shown) [Compound A42]
27 | 0.1 to 10 | COc1cc(Nc2nc3ccccc3nc2NS(=O)(=O)c2cn(C)cn2)c2oc(C(=O)N(C)C)cc2c1 [Compound A9]

Target: CK2 protein kinase (Homo sapiens, UniProt P68400)
Experiment: not given
Conditions: cited from earlier work

Sequence of CK2 protein kinase (P68400 whole entry): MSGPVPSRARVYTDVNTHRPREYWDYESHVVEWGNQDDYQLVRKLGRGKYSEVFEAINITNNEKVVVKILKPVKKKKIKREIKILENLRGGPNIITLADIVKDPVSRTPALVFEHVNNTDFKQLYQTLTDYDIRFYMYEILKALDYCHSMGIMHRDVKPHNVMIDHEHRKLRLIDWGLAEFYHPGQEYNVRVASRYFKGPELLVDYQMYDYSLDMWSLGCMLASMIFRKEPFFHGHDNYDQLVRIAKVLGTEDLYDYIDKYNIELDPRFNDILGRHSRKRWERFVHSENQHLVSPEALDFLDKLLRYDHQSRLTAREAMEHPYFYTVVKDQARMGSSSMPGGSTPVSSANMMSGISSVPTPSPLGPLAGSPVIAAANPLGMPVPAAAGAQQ

Row | SMILES | IC50 [µM]
28 | O=c1cc(N2CCOCC2)oc2c(-c3ccccc3)cccc12 [LY294002] | 5 to 10

Tested on: phospholipases
Experiment: not given
Conditions: cited from earlier work

Row | SMILES | inhibitory activity on phospholipases
29 | O=c1cc(N2CCOCC2)oc2c(-c3ccccc3)cccc12 [LY294002] | slight inhibitory activity

Tested on: neutrophils
Experiment: not given
Conditions: treatment of neutrophils; Thelen et al. 1994; cited from earlier work

Row | SMILES | fMLP-induced respiratory burst response
30 | COC[C@H]1OC(=O)c2coc3c2[C@@]1(C)C1=C(C3=O)[C@@H]2CCC(=O)[C@@]2(C)C[C@H]1OC(C)=O [wortmannin] | prevents

Tested on: neutrophils
Experiment: not given
Conditions: cited from earlier work

Row | SMILES | neutrophil migration | superoxide release
31 | O=c1cc(N2CCOCC2)oc2c(-c3ccccc3)cccc12 [LY294002] | block | block
32 | COC[C@H]1OC(=O)c2coc3c2[C@@]1(C)C1=C(C3=O)[C@@H]2CCC(=O)[C@@]2(C)C[C@H]1OC(C)=O [wortmannin] | block | block
